Results reported in ChEMBL document CHEMBL1145649, “Novel HCV NS5B polymerase inhibitors derived from 4-(1',1'-dioxo-1',4'-dihydro-1'lambda6-benzo[1',2',4']thiadiazin-3'-yl)-5-hydroxy-2H-pyridazin-3-ones: Part 4. Optimization of DMPK properties” (Bioorg Med Chem Lett, 2008).

Legend:
[1] = physchem; conditions: buffer, pH 7.4
[2] = Fraction absorbed in cynomolgus monkey at 1 mg/kg, po; format: ADME, organism-based, Macaca fascicularis; set-up: dose 1 mg/kg, route oral; conditions: in vivo, read-out: Fabs
[3] = Oral bioavailability in cynomolgus monkey at 1 mg/kg; format: ADME, organism-based, Macaca fascicularis; conditions: in vivo
[4] = in vitro; conditions: human, Caco-2
[5] = tested on: Cynomolgus monkey; experiment: AUC (0 to infinity) in cynomolgus monkey at 1 mg/kg, iv; format: ADME, organism-based, Macaca fascicularis, Plasma; set-up: time infinity, dose 1 mg/kg, route intravenous; conditions: in vivo
[6] = tested on: Cynomolgus monkey; experiment: AUC (0 to infinity) in cynomolgus monkey at 1 mg/kg, po; format: ADME, organism-based, Macaca fascicularis, Plasma; set-up: time infinity, dose 1 mg/kg, route oral; conditions: in vivo
[7] = Volume of distribution at steady state in cynomolgus monkey at 1 mg/kg, iv; format: ADME, organism-based, Macaca fascicularis; set-up: dose 1 mg/kg, route intravenous; conditions: in vivo, read-out: Vdss
[8] = Cmax in cynomolgus monkey at 1 mg/kg, po; format: ADME, organism-based, Macaca fascicularis; set-up: dose 1 mg/kg, route oral; conditions: in vivo
[9] = Tmax in cynomolgus monkey at 1 mg/kg, po; format: ADME, organism-based, Macaca fascicularis; set-up: dose 1 mg/kg, route oral; conditions: in vivo

SMILES | solubility [1] | Fa [2] | bioavailability [3] | Papp A→B at 10 µM [4] | AUC [5] | AUC [6] | Vd [7] | Cmax [8] | Tmax [9]
CC(C)(C)CCn1nc(CC(C)(C)C)c(O)c(C2=NS(=O)(=O)c3cc(NS(C)(=O)=O)ccc3N2)c1=O | > 100 µM | 4% | 4% | 0.15 ×10⁻⁶ cm/s | – | – | – | – | –
CC(C)CCn1nc(-c2cccs2)c(O)c(C2=NS(=O)(=O)c3cc(N(C)S(C)(=O)=O)ccc3N2)c1=O | > 100 µM | 33% | – | – | 605 ng·h/mL | 72 ng·h/mL | 0.57 L/kg | 11 ng/mL | 6 h
CC(C)CCn1nc(CC(C)(C)C)c(O)c(C2=NS(=O)(=O)c3cc(NS(C)(=O)=O)ccc3N2)c1=O | > 100 µM | 8% | 6% | 0.29 ×10⁻⁶ cm/s | – | – | – | – | –
CS(=O)(=O)Nc1ccc2c(c1)S(=O)(=O)N=C(c1c(O)c(C3=CCCC3)nn(CCC3CC3)c1=O)N2 | > 100 µM | 6% | 4% | 0.59 ×10⁻⁶ cm/s | – | – | – | – | –
CC(C)CCn1nc(CC2CC2)c(O)c(C2=NS(=O)(=O)c3cc(NS(C)(=O)=O)ccc3N2)c1=O | > 100 µM | 9% | 7% | 0.49 ×10⁻⁶ cm/s | – | – | – | – | –
CC(C)CCn1nc(C(C)(C)C)c(O)c(C2=NS(=O)(=O)c3cc(NS(C)(=O)=O)ccc3N2)c1=O | > 100 µM | 17% | 15% | 0.58 ×10⁻⁶ cm/s | 3980 ng·h/mL | 611 ng·h/mL | 0.17 L/kg | 294 ng/mL | 1.5 h
Cc1ccc(-c2nn(Cc3ccccc3)c(=O)c(C3=Nc4ccccc4S(=O)(=O)N3)c2O)s1 | > 80 µM | 36% | – | – | 10900 ng·h/mL | 3650 ng·h/mL | 0.21 L/kg | 673 ng/mL | 2 h
CN(c1ccc2c(c1)S(=O)(=O)N=C(c1c(O)c(-c3cccs3)nn(CCC(C)(C)C)c1=O)N2)S(C)(=O)=O | > 100 µM | 5% | 3% | 0.01 ×10⁻⁶ cm/s | – | – | – | – | –
CC(C)CCn1nc(CC2CCCC2)c(O)c(C2=NS(=O)(=O)c3cc(NS(C)(=O)=O)ccc3N2)c1=O | – | 18% | 15% | – | 2540 ng·h/mL | 370 ng·h/mL | 0.15 L/kg | 113 ng/mL | 1.3 h

Continued, values first:

solubility [1] | Fa [2] | bioavailability [3] | Papp A→B at 10 µM [4] | AUC [5] | AUC [6] | Vd [7] | Cmax [8] | Tmax [9] | SMILES
– | 7% | 4% | – | – | – | – | – | – | CC(C)(C)CCn1nc(C2=CCCC2)c(O)c(C2=NS(=O)(=O)c3cc(NS(C)(=O)=O)ccc3N2)c1=O
> 100 µM | 18% | 10% | – | 851 ng·h/mL | 89 ng·h/mL | 0.57 L/kg | 13 ng/mL | 6 h | CC(C)(C)CCn1nc(CC2CCCC2)c(O)c(C2=Nc3ccc(NS(C)(=O)=O)cc3S(=O)(=O)N2)c1=O
> 100 µM | 2% | 2% | 1 ×10⁻⁶ cm/s | – | – | – | – | – | CC(C)=Cc1nn(CCC(C)(C)C)c(=O)c(C2=NS(=O)(=O)c3cc(NS(C)(=O)=O)ccc3N2)c1O
> 100 µM | 7% | 6% | 0.7 ×10⁻⁶ cm/s | – | – | – | – | – | CC(C)(C)Cc1nn(CCC2CC2)c(=O)c(C2=Nc3ccc(NS(C)(=O)=O)cc3S(=O)(=O)N2)c1O
> 50 µM | 5% | 4% | 0.95 ×10⁻⁶ cm/s | – | – | – | – | – | CC(C)(C)CCn1nc(C2CC2)c(O)c(C2=Nc3ccc(NS(C)(=O)=O)cc3S(=O)(=O)N2)c1=O
> 100 µM | 4% | – | – | 1330 ng·h/mL | 30 ng·h/mL | 0.18 L/kg | 3.8 ng/mL | 6.3 h | CC(C)CCn1nc(-c2cccs2)c(O)c(C2=Nc3ccc(NS(C)(=O)=O)cc3S(=O)(=O)N2)c1=O
